Measurements from patent publication US20210214368A1, “COMPOUNDS FOR THIOL-TRIGGERED COS AND/OR H2S RELEASE AND METHODS OF MAKING AND USING THE SAME” (University of Oregon, priority 2018, published 2021).

Key:
[1] = Thiol-triggered H2S release in PBS containing CA (MB assay); conditions: compound 50 μM
Method: To evaluate thiol effects on COS/H2S release from cyclic perthiocarbamate compound embodiments, compound 306a (50 μM) was incubated in PBS (pH 7.4, 10 mM) containing Cys or GSH (up to 4.0 mM) and CA (25 μg/mL) and H2S release was monitored by MB assay. […] Additionally, other thiol triggers, such as cysteine, homocysteine, and N-acetyl cysteine, were combined with compound 306a to evaluate if they would trigger the compound to release H2S.
In this example, GSH-triggered H2S release from compound 900 was evaluated. […] To improve the H2S releasing capacity of ATB-346, compound 900 was made by reacting ATB-346 with chlorocarbonyl sulfenyl chloride reagent (see Scheme 9). The resultant compound 900 was then added to PBS containing GSH and CA.
Release of H2S from compound 404c (25 μM) in the presence of L-cysteine or reduced glutathione (GSH) (500 μM, 20 equiv.) measured by the spectrophotometric methylene blue assay, with results shown in FIG. 17.
In this example, additional compounds, such as cyclic sulfenyl thiocarbamate compounds 306a-306e, were evaluated for their ability to release H2S upon exposure to a biological thiol, cysteine.
With the hybrid NSAID in hand, COS/H2S release in aqueous buffer was evaluated.

HeLa cells [2] = assay: Imaging of H2S delivery in HeLa cells with SF7-AM probe; assay type: cell-based; conditions: compound 50 μM 30 minutes, SF7-AM 5 μM
Method: In this example, H2S delivery from sulfenyl thiocarbamate compound 306a in HeLa cells was evaluated. HeLa cells were treated with Hoechst dye and SF7-AM (5 μM) in DMEM only for 5 minutes and then with DMEM only for 30 minutes (top row) or DMEM containing the compound (50 μM) for 30 minutes (bottom row). Cells were then washed with PBS and cell images were taken in PBS using a fluorescent microscope.

RAW 264.7 cells [3] = assay: Cytotoxicity in RAW 264.7 cells (CCK-8); assay type: cell-based; conditions: concentrations up to 25 μM, 2 hours
Method: In this example, cytoprotective activity of compound 202a against LPS-induced inflammation was evaluated. […] The compounds of the present disclosure were therefore evaluated to determine their anti-inflammatory activities due to H2S release. RAW 264.7 cells were incubated with compound 202a (0-25 μM) for 2 hours, followed by a 24-hour incubation with lipopolysaccharide (LPS, 0.5 μg/mL) to trigger the inflammatory response. The inflammation event usually results in the NO generation, which can be monitored by measuring nitrite (NO2—) accumulation. […] In particular, confluent RAW 264.7 cells were incubated in FBS-free DMEM containing vehicle (0.5% DMSO), compound 202a, BnSH, and compound 204 (10.0-100 μM) for 2 hours in a 96-well plate. The culture media were then removed and 100 μL of FBS-free DMEM containing 10% CCK-8 solution was added to each well, and cells were incubated for 2 hours at 37° C. The absorbance at 450 nm was measured by using a microplate reader (FIG. 9). The cell viability was measured and normalized to the vehicle group. The results are expressed as mean t SEM (n=6).

[4] = Selectivity of fluorescence turn on to cellular RSONs and thiols; conditions: 10 μM, PBS at physiological pH, 2 hours
Method: Representative Procedure for Evaluating Selectivity of Compound EmbodIments to Cellular RSONs—To 3.00 mL of PBS was added a stock solution of compound 202a (3.00 μL, 10.0 mM in DMSO), followed by the addition of RSON stock solution (30.0 μL, 10.0 mM in H2O). After 2 hours of incubation at room temperature, the solution was excited at 490 nm and the fluorescence intensity (500-650 nm) was measured and recorded by using a Quanta Master 40 spectrofluorometer. For the NEM-pretreated group, NEM (30.0 μL, 1.00 M) was added to PBS (3.00 mL) containing CA (25.0 μg/mL) and Cys (100 μM). The solution was then incubated for 1 hour before adding the compound 202a stock solution (3.00 μL, 10.0 mM in DMSO).
In this example, fluorescence turn on of compound 202a (10 μM) in the presence of cellular reactive sulfur, oxygen, and nitrogen species (RSONs) (100 μM) was evaluated. […] Compound 202a (10 μM) was incubated with GSH, homocysteine (Hcy), N-acetyl cysteine (NAC), penicillamine (PEN), or bovine serum albumin (BSA) (100 μM), in PBS buffer (pH 7.4, 10 mM) containing CA (25 μg/mL) and the fluorescent intensity was measured after 2 hours. […]
Compound 202a also (10 μM) was incubated with RSONs (100 μM), such as H2O2, ClO^−, O2^−, TBHP, Ser, Lys, Gly, GSSG, and GSNO, and COS/H2S release was monitored by tracking the fluorescein formation. […]

[5] = system: porcine liver esterase (PLE); assay: Esterase stability of the sulfenyl thiocarbonate group (fluorescence); assay type: in vitro ADME; conditions: compound 10 μM, PLE 1 U/mL, 2-hour incubation
Method: Compound 202a also (10 μM) was incubated with RSONs (100 μM), such as H2O2, ClO^−, O2^−, TBHP, Ser, Lys, Gly, GSSG, and GSNO, and COS/H2S release was monitored by tracking the fluorescein formation. […] Because the carbonate functional group may be sensitive to esterase-catalyzed hydrolysis, the esterase stability of the sulfenyl thiocarbonate group also was evaluated by incubating compound 202a (10 μM) with porcine liver esterase (PLE, 1 U/mL).

[6] = Cys-triggered fluorescence turn on in PBS; conditions: compound 10 μM in PBS, no Cys
Method: Representative Measurement of Fluorescence Intensity of Compound Embodiments—A freshly prepared compound 202a stock solution (3.00 μL, 10.0 mM in DMSO) was added to 3.00 mL of PBS (Ph 7.40, 10.0 Mm) containing CA (25.0 μg/mL) in a quartz fluorescence cuvette. A Cys stock solution (10.0 mM) was then added to reach the desired working concentration. The reaction solution was excited at 490 nm and the fluorescence intensity (500-650 nm) was measured and recorded using a Quanta Master 40 spectrofluorometer.
In this example, it was determined that Cys-induced compound 202a activation can be monitored by tracking the fluorescein formation and accompanied fluorescence response, and, in some embodiments, the reaction proceeds more quickly when higher concentrations of thiols are added. Time-dependent fluorescence spectra (FIG. 2A) and UV-vis spectra (FIG. 2B) of a particular compound embodiment, compound 202a, (10 μM) in PBS buffer (pH 7.4, 10 mM) containing Cys (100 μM) and CA (25 μg/mL) were obtained using a fluorescence spectrometer. […] Fluorescein formation was also confirmed by UV-vis spectroscopy under the identical conditions (FIG. 2B). Specifically, a freshly prepared compound 202a stock solution (3.00 μL, 10.0 mM in DMSO) was added to 3.00 mL of PBS (pH 7.40, 10.0 mM) containing CA (25.0 μg/mL) in a quartz UV cuvette. A Cys stock solution (30.0 μL, 10.0 mM in H2O) was then added. The absorbance (350-600 nm) was measured for 3 hours using a Cary 100 spectrometer. A Cys-dependent fluorescence enhancement was observed when treating compound 202a (10 μM) with increasing concentrations of Cys (1-20 equiv.), indicating a high sensitivity of compound 202a towards Cys. […] In addition, to confirm the H2S delivery from compound 202a, compound 202a (10 μM) was treated with Cys (100 μM) in PBS containing CA (25 μg/mL) and quantified H2S release using the MB assay. […] Optical measurement conditions were as follows: […], and slit width=0.3 mm.

HeLa cells [7] = assay: Cytotoxicity in HeLa cells (CCK-8); assay type: cell-based; conditions: 6.25-50.0 μM, 30 minutes
Method: In this example, H2S delivery from compound 202a in HeLa cells was evaluated. To determine whether compound embodiments of the present disclosure can be activated to release COS/H2S in cellular environment, HeLa cells were treated with compound 202a under different conditions. HeLa cells were treated with compound 202a (50 μM) or compound 204 (50 μM) and H2S release was monitored using C7-Az, a H2S-responsive fluorescent probe. […] To confirm that compound 202a was not cytotoxic, confluent HeLa cells were incubated in FBS-free DMEM containing vehicle (0.5% DMSO), and compound 202a (6.25-50.0 μM) for 30 minutes in a 96-well plate. The culture media were then removed and 100 μL of FBS-free DMEM containing 10% CCK-8 solution was added to each well, and cells were incubated for 2 hours at 37° C. The absorbance at 450 nm was measured by using a microplate reader (see FIG. 8). The cell viability was measured and normalized to the vehicle group. The results are expressed as mean t SEM (n=6).

RAW 264.7 cells [8] = assay: Anti-inflammatory activity: LPS-induced NO2- accumulation (Griess); assay type: cell-based; conditions: pretreatment 25 μM for 2 hours, then LPS 0.500 μg/mL 24 hours
Method: Representative Procedure for Determining Anti-Inflammatory Activities of Compound Embodiments and Control Compounds—Macrophage RAW 264.7 cells were seeded in a 24-well plate (5×10^5 cells/well) containing 0.500 mL of DMEM and incubated at 37° C. under 5% CO2 for 24 hours. The confluent cells were washed with PBS and incubated with either compound 202a (0-25.0 μM), or GYY4137 (25.0 μM) at 37° C. for 2 hours. Compounds were then removed by washing cells with PBS and these pretreated cells were incubated in FBS-free DMEM containing LPS (0.500 μg/mL) for 24 hours. NO2— levels were measured by using a Griess Reagent Kit.

RAW 264.7 cells [9] = conditions: 100-1000 μM and 24-hour incubation; cited from earlier work

SMILES: O=c1nc(-c2ccccc2)ss1 [Compound 306a]
- GSH-dependent H2S release ([1]; GSH up to 4.0 mM, CA 25 μg/mL, PBS pH 7.4): GSH-dependent H2S release was observed
- H2S release in the presence of thiols GSH, Cys, Hcy, and NAC ([1]; PBS, CA): H2S release was observed
- H2S release with GSSG, Lys, Ser, Gly, S2O3^2−, SO3^2−, SO4^2− ([1]; PBS, CA): did not activate the compound and minimal H2S release was observed
- H2S release with penicillamine ([1]; PBS, CA): minimal H2S release
- H2S release in the absence of thiol trigger ([1]; PBS, no thiol): Negligible H2S release was observed
- SF7-AM (H2S probe) fluorescence in HeLa cells (HeLa cells [2]): strong SF7-AM fluorescent signal

SMILES: O=C(Oc1ccc2c(c1)Oc1cc(OC(=O)SSCc3ccccc3)ccc1C21OC(=O)c2ccccc21)SSCc1ccccc1 [Compound 202a]
- cytotoxicity in RAW 264.7 cells (RAW 264.7 cells [3]): did not induce cytotoxicity
- stability in PBS in the absence of thiols [4]: stable
- fluorescence with porcine liver esterase [5]: slight fluorescence turn on
- fluorescent signal in the absence of Cys (stability in aqueous buffer) [6]: No fluorescent signal was observed
- cytotoxicity in HeLa cells (HeLa cells [7]): not cytotoxic

SMILES: C1COCCN1.COc1ccc(P(=S)(S)N2CCOCC2)cc1 (stereo not shown) [GYY4137]
- anti-inflammatory activity at 25 μM (NO2− production) (RAW 264.7 cells [8]): such cytoprotection was not observed
- anti-inflammatory effects at higher concentration and longer incubation (RAW 264.7 cells [9]): anti-inflammatory effects
